Laboratory results: patent US10428134B2, “Immunoglobulins and uses thereof” (JANSSEN PHARMACEUTICA NV, priority 2016, dated 2019)

Test: Repeat dosing in DIO mice: food intake, body weight, body composition
Format: in vivo, mouse
Details: 0.3 nmol/kg s.c. daily
Method: To control for the dosing frequency, all animals were dosed daily. Dosing frequency was determined on the basis of DIO mouse PK data for compound 2 and dulaglutide. Animals in the dulaglutide group received this drug daily. The vehicle-treated animals received vehicle daily. […] The day prior to initiating of dosing, animals were weighed and grouped by body weight. […].
Beginning 24-hr after the first dosing, three groups of mice were pair-fed (PF) to the 1.0, 2.0, or 4.0 nmol/kg compound 2-treated animals. The amount of food in the hopper of pair-fed mice was adjusted to match the average food consumed in the previous 24 hours by mice in the compound treatment group to which they were being matched. All PF groups were dosed daily with vehicle. On the ninth day (or Day 10 for the pair-fed groups), animals were fasted for 6 hours and body weight and fasting glucose were measured. Blood was collected for measurements of insulin, FGF21 and plasma lipids. The food intake, body weight, body composition, fasting glucose, fasting insulin, fasting FGF21, and fasting plasma lipid data are shown in tables 20-26.

Dulaglutide: the GLP1R agonist, dulaglutide [reference compound]
body composition: Fat % of Body Weight (after repeated dosing): 22.8 ± 1.2% | body composition: Fat Mass (after repeated dosing): 7.6 ± 1.1 g | body composition: Lean % of Body Weight (after repeated dosing): 61.0 ± 1.7% | body composition: Lean Mass (after repeated dosing): 22.1 ± 0.3 g | daily food intake (day 0): 3.1 ± 0.2 grams | percent body weight change (day 0): 0.0% | daily food intake (day 1): 1.5 ± 0.2 grams | percent body weight change (day 1): −3.7 ± 0.3% | daily food intake (day 2): 1.3 ± 0.2 grams | percent body weight change (day 2): −6.2 ± 0.6% | daily food intake (day 3): 1.7 ± 0.3 grams | percent body weight change (day 3): −7.8 ± 0.8% | daily food intake (day 4): 1.9 ± 0.2 grams | percent body weight change (day 4): −9.2 ± 0.8% | daily food intake (day 5): 2.1 ± 0.2 grams | percent body weight change (day 5): −10.1 ± 0.8% | daily food intake (day 6): 2.2 ± 0.2 grams | percent body weight change (day 6): −10.2 ± 0.8% | daily food intake (day 7): 2.3 ± 0.2 grams | percent body weight change (day 7): −10.7 ± 1.0% | daily food intake (day 8): 2.9 ± 0.4 grams | percent body weight change (day 8): −11.1 ± 0.9% | daily food intake (day 9): 2.5 ± 0.2 grams | percent body weight change (day 9): −13.1 ± 1.1%
